Columns and labels:
MPO = biological target: T1, MPO (Homo sapiens, UniProt P05164); assay: Matrigel tissue model containing MPO, MR imaging at 1.5 T; type: biochemical
T1 construct: purchased BioDesign Inc
Procedure: Standard 96-well plates were prepared and imaged on a 1.5 T whole body clinical General Electric Signa MRI scanner utilizing a standard 3 inch surface coil. Inversion recovery sequences were used to measure T1 relaxation and spin echo sequences were utilized to measure T2 relaxation. T2 weighted images were obtained with TR=5000 ms and TE=100 ms with a fast spin echo sequence. T1 weighted images were obtained with spin echo sequences with the following parameters: TR=100, 200, 350, or 500, TE=11. For the Matrigel™ experiments, a relatively T2 weighted image was obtained at TR=300 ms and TE=200 ms. Single-exponential models were used to obtain T1 and T2. The relaxivities were computed by normalizing relaxation rates to the concentration of gadolinium in each sample, obtained by inductive coupled plasma (ICP) analysis performed by Galbraith Laboratories.
We also designed a tissue model system with Matrigel™ to confirm that the substrates can delineate tissues containing MPO. Substrate was added on top of Matrigel™ containing MPO, and imaged at 1.5 T one hour after sample preparation (to ensure substrate conversion), and at 24 hours after sample preparation. Utilizing this tissue model system, and using glucose/glucose oxidase as the hydrogen peroxide generating system (peroxide is released by neutrophils in vivo), we observed an MPO-specific change in the MR signal (see FIG. 8) that is visible on T1-weighted, T2-weighted, and inversion recovery images, at 1 hour after sample preparation. The changes continued to increase over time, and at 24 hours, there is a 30% increase in the longitudinal relaxation rate (5.3 s^−1 to 6.9 s^−1) and a 20% increase in the transverse relaxation rate (8.8 s^−1 to 10.6 s^−1). […] No such change was identified in control systems where MPO was not present (not shown) or glucose oxidase was not present (see the first cell in FIG. 8).

endogenous mouse MPO [1] = biological target: T2, endogenous mouse MPO (Mus musculus, UniProt P11247); assay: LPS induced myositis, MR imaging at 4.7 T; type: in vivo; conditions: mice with LPS induced myositis
T2 construct: endogenous in cells; host or cells: inflammatory cells recruited by LPS in C57BL6 male mice (Matrigel site in the thigh, or flank muscle myositis)
T2 sequence (P11247 139-718): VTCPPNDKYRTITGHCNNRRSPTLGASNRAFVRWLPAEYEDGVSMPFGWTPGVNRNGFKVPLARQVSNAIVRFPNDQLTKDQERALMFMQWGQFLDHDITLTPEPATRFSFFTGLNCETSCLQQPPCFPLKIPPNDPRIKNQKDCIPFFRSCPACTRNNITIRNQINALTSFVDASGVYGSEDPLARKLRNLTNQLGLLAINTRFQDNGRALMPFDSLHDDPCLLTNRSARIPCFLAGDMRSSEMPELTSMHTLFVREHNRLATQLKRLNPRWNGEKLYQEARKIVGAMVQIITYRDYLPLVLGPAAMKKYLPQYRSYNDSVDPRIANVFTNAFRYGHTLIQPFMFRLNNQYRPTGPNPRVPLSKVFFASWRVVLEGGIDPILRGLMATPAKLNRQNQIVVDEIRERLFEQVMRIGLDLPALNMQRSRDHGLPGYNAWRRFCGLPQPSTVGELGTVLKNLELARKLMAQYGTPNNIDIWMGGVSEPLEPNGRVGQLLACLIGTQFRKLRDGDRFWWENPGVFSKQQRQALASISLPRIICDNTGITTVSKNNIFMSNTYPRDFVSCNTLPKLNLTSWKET
Procedure: (§1) The MR imaging experiments were performed on a 1.5 T GE Excite scanner and a 4.7 T Bruker Pharmascan scanner. For all MR imaging experiments, precontrast T2-(TR=2000, TE=100, ETL=8, NEX=4, fast spin echo sequence) and T1-weighted images (TR=500, TE=11, NEX=4, spin echo sequence) with fat saturation were initially performed to locate the gels or area of inflammation. The substrates (0.3 mmol/kg) were subsequently injected via the tail vein of the mouse. The mouse was immediately imaged after the injection of the contrast agent using multiple T1-weighted sequences with fat saturation for at least 3 hours.
(§2) Ten-week old C57BL6 male mice were obtained from Jackson Laboratories. A total of 22 mice were used for the study. • 1. MPO/Matrigel imaging experiments: Matrigel™ (Beckton-Dickinson), a […] basement membrane matrix gel was used to immobilize human MPO and glucose oxidase (to supply H2O2 required for detecting MPO oxidative activity, Calbiochem). This was chosen to reflect deposits of human MPO in inflamed tissue in a mouse model. 400 μL of a mixture of Matrigel™ and MEM (Cambrex) was injected slowly into the thighs of each mouse one hour prior to imaging. The right thigh mixture also contained 15 U of MPO and 4 U of glucose oxidase (Calbiochem), while the left thigh mixture contained no enzyme and thus serves as an internal control. […]

endogenous mouse MPO [2] = biological target: T2, endogenous mouse MPO; assay: LPS/Matrigel experiments, MR imaging; type: in vivo; conditions: mice; LPS/Matrigel right vs Matrigel left
Procedure: as §1, §2

plasma proteins = assay: Substrate binding to plasma components (Biospin P-6 elution with 111In tracer); type: in vitro ADME; conditions: human plasma; eluting experiments
Procedure: The follow experiments were performed to determine the effect of MPO-activated substrate oligomerization with plasma proteins to form larger aggregate. Human plasma was extracted from healthy donors by the use of Polymorphprep (Accurate Chemicals) and centrifugation according to the manufacturer's instructions. Aliquots of 3 mM solution of bis-5-HT-DTPA(Gd) was mixed with aliquots of ^111In-bis-5-HT-DTPA as a tracer, with or without human plasma and with and without MPO/H2O2. […] Radioactivity retained in the columns and the eluted material were counted separately in 1480 Wizard gamma counter (Perkin-Elmer) and the fraction of radioactivity bound to proteins was calculated (n=3 independent experiments).

[3] = Matrigel/substrate interface, at 24 hours

T1 sequence (P05164 279-745 limits assumed): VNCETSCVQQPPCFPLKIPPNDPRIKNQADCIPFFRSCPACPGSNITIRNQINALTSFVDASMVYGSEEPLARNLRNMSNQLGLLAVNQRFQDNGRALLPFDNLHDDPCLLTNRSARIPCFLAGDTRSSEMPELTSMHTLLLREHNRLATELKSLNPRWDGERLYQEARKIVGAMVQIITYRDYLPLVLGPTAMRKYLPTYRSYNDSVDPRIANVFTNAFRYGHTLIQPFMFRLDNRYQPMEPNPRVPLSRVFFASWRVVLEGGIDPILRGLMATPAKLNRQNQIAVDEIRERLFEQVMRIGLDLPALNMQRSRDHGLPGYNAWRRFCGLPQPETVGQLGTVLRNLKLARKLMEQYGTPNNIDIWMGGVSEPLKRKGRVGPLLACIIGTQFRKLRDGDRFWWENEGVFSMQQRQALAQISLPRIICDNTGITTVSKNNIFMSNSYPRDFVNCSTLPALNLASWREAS
T1 sequence (P05164 165-273 limits assumed): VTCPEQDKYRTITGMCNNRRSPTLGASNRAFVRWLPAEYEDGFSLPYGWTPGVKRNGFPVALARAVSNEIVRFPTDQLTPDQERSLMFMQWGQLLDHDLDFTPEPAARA

increase in the longitudinal relaxation rate (MPO; [3]) [%] | increase in the transverse relaxation rate (MPO; [3]) [%] | longitudinal relaxation rate (MPO; at 24 hours) [s⁻¹] | transverse relaxation rate (MPO; at 24 hours) [s⁻¹] | longitudinal relaxation rate (MPO; starting value) [s⁻¹] | transverse relaxation rate (MPO; starting value) [s⁻¹] | enhancement at 50 minutes after injection (endogenous mouse MPO [1]) | Structure (SMILES) | increased enhancement on the MPO side (endogenous mouse MPO [2]) [fold] | binding of MPO-activated oligomers to plasma proteins compared to the substrate itself (plasma proteins)
30 | 20 | 6.9 | 10.6 | 5.3 | 8.8 | still significant enhancement | CC(C(=O)NCC(=O)NCCc1c[nH]c2ccc(O)cc12)N1CCN(CC(=O)[O-])CCN(CC(=O)[O-])CCN(CC(=O)[O-])CC1.[Gd+3] (stereo not drawn) [5-HT-DOTA(Gd), Glycylmethyl DOTA(Gd) 5-Hydroxytryptamide] | – | –
– | – | – | – | – | – | – | O=C([O-])CN(CCN(CC(=O)[O-])CC(=O)NCCc1c[nH]c2ccc(O)cc12)CCN(CC(=O)[O-])CC(=O)NCCc1c[nH]c2ccc(O)cc12.[Gd+3] [2Gd^3+] | 1.3 | over 3 fold
